Measured values: patent US10300067B2, “Tetrahydropyridopyrimidine compound or salt thereof” (TAIHO PHARMACEUTICAL CO., LTD., priority 2014, dated 2019)

Key:
Format in all cases: cell-based
[1] = system: AR positive human prostate cancer cells VCaP; assay: Agonist activity for AR (cell proliferation rate of VCaP cells); details: 72 hours, 2 to 10000 nmol/L, more than 10% at any concentration = agonist activity for AR
Method: AR positive human prostate cancer cells VCaP (In Vivo 15:163-168, 2001) were seeded in a clear bottom 96 well microplate (BD) at 1.5×10^4/well with phenol red free RPMI1640 containing 5% DCC-FBS (hereinbelow, the medium is referred to as an evaluation medium), and then cultured overnight. The culture was added with the evaluation medium containing the compound of Examples or the compound of Comparative Examples (final concentration of the compound of Examples or the compound of Comparative Examples: 2, 5, 14, 41, 123, 370, 1111, 3333, or 10000 nmol/L), followed by culture for 72 hours. Then, the number of viable cells was counted (test group). As a control, the cells were cultured after being added with the evaluation medium only, and the number of viable cells was counted (control group). The number of viable cells was measured by using CellTiter-Glo™ Luminescent Cell Viability Assay (Promega). From the measured number of viable cells, cell proliferation rate with respect to the compound of Examples or the compound of Comparative Examples was calculated based on the number of viable cells measured in the case of using the evaluation medium only. Cell proliferation rate (%) =(Number of viable cells in test group−Number of viable cells in control group)/(Number of viable cells in control group)×100
By considering an error in the number of viable cells measured in the case of using the evaluation medium only, when the cell proliferation rate was more than 10% at any concentration of the 9 concentrations which had been evaluated, it was determined to have an agonist activity for AR.

[2] = system: Human prostate cancer cells LNCaP; assay: Androgen-dependent inhibitory activity on proliferation of prostate cancer cells; details: 50% proliferation inhibition concentration, DHT 10 nmol/L, 72 hours, read-out: GI50 value
Method: Human prostate cancer cells LNCaP (Non-Patent Literature 5) having […] androgen receptor gene were seeded in a clear bottom 96 well microplate (BD) at 4.0×10^3/well with phenol red free RPMI1640 containing 5% DCC-FBS (hereinbelow, the medium is referred to as an evaluation medium), and then cultured overnight. The culture was added with the evaluation medium containing DHT (final concentration of DHT: 10 nmol/L) or the evaluation medium containing the compound of Examples or the compound of Comparative Examples (final concentration of the compound of Examples or the compound of Comparative Examples: 10, 30, 100, 300, 1000, 3000, 10000, or 30000 nmol/L), followed by culture for 72 hours. Then, the number of viable cells was counted. The number of viable cells was measured by using Cell Counting Kit-8 (DOJINDO LABORATORIES).

human androgen receptor = human androgen receptor (Homo sapiens (Human), UniProt P10275); assay: Antagonist activity for AR (pMMTV-luc reporter transcription activity in transfected COS-7 cells, DHT 1 nmol/L); details: 50% transcription activity inhibition concentration; COS-7 cells with pMMTV-luc and pEX-hAR, DHT 1 nmol/L, 24 hours
Sequence of human androgen receptor (P10275 whole entry): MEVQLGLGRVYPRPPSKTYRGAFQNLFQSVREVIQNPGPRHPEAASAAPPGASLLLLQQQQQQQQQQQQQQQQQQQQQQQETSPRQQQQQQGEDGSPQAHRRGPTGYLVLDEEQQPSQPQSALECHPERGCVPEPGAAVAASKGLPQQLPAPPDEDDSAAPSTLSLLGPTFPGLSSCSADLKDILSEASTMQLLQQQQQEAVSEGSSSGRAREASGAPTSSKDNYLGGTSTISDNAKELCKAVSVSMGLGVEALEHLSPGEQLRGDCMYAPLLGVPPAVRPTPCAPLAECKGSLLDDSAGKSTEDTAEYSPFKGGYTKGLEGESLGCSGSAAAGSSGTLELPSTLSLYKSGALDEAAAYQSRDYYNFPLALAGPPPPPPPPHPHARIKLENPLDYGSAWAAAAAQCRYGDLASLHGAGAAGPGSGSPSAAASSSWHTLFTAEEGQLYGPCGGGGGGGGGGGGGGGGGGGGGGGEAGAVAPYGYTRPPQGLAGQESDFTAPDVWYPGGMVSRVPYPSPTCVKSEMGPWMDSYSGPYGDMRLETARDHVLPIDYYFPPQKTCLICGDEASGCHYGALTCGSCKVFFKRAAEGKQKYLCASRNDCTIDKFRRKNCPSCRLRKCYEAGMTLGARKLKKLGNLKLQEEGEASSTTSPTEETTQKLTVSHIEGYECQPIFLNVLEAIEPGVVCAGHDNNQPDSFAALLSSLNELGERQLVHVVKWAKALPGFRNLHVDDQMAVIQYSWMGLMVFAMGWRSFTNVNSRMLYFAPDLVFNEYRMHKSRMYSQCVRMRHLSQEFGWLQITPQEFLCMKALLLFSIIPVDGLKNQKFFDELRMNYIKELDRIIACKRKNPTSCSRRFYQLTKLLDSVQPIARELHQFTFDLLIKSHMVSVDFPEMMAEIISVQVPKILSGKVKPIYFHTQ
Outline: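 COS-7 cells co-transfected with pMMTV-luc reporter and CMV-driven human AR expression vector, cultured overnight in phenol red-free RPMI1640 with 10% charcoal-treated FBS. Antagonism measured against 1 nmol/L DHT by luciferase transcription activity.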

androgen receptor = androgen receptor (Homo sapiens (Human), UniProt P10275, T878A); assay: Activity of reducing expression level of androgen receptor (Western blotting of LNCaP cell lysate); details: 48 hours
Sequence of androgen receptor (P10275 whole entry T878A): as the sequence (P10275 whole entry) above, with T878A counted along it
Method: AR positive human prostate cancer cells LNCaP were seeded in a clear bottom 6 well microplate (BD) at 3.5×10^5/well with phenol red free RPMI1640 containing 5% FBS (hereinbelow, the medium is referred to as an evaluation medium), and then cultured overnight. The culture was added with the evaluation medium containing the compound of Examples or the compound of Comparative Examples such that the final concentration of the compound of Examples or the compound of Comparative Examples was 10000 nmol/L, followed by culture for 48 hours. After culture for 48 hours, the medium was removed and the cells were washed with PBS and added with 0.1 mL of Lysis buffer (M-PER added with Protease Inhibitor Cocktail), followed by keeping at 4° C. for 20 minutes. After cell lysis, the cell solution was centrifuged to recover the supernatant as cell lysate. […] The antibody-reacting band (anti AR receptor) was quantified by LAS-3000 (FUJIFILM) using Super Signal West Pico Substrate (Thermo Scientific) as a detection reagent.

Compound | Cell proliferation rate (%) [1] | GI50 [2] | IC50 (human androgen receptor) | 10 μM AR expression reducing activity (androgen receptor)
N#Cc1ccc(N2CCc3c(ncnc3Nc3ncns3)C2)cc1C(F)(F)F [Example 1, 4-(4-((1,2,4-thiadiazol-5-yl)amino)-5,6-dihydropyrido[3,4-d]pyrimidin-7(8H)-yl)-2-(trifluoromethyl)benzonitrile] | 8.7% | 3000 nM | 80 nM | reduced (When the AR expression reducing activity is 50% or more, it is described as “reduced”)
CC(C)Oc1ccc(Nc2ncnc3c2CCN(c2ccc(C#N)c(C(F)(F)F)c2)C3)cc1 [Example 2, 4-(4-((4-isopropoxyphenyl)amino)-5,6-dihydropyrido[3,4-d]pyrimidin-7(8H)-yl)-2-(trifluoromethyl)benzonitrile] | 3.8% | 1000 nM | 370 nM | reduced (When the AR expression reducing activity is 50% or more, it is described as “reduced”)
CC(C)(O)c1ccc(Nc2ncnc3c2CCN(c2ccc(C#N)c(C(F)(F)F)c2)C3)nc1F [Example 5, 4-(4-((6-fluoro-5-(2-hydroxypropan-2-yl)pyridin-2-yl)amino)-5,6-dihydropyrido[3,4-d]pyrimidin-7 (8H)-yl)-2-(trifluoromethyl)benzonitrile] | −5.5% | 600 nM | 190 nM | reduced (When the AR expression reducing activity is 50% or more, it is described as “reduced”)
CC(C)(O)c1ccc(Nc2ncnc3c2CCN(c2ccc(C#N)c(C(F)(F)F)c2)C3)nn1 [Example 10, 4-(4-((6-(2-hydroxypropan-2-yl)pyridazin-3-yl)amino)-5,6-dihydropyrido[3,4-d]pyrimidin-7 (8H)-yl)-2-(trifluoromethyl)benzonitrile] | 2.8% | 800 nM | 90 nM | reduced (When the AR expression reducing activity is 50% or more, it is described as “reduced”)
CC(C)Oc1ccc(Nc2ncnc3c2CCN(c2ccc(C#N)c(C(F)(F)F)c2)C3)cn1 [Example 13, 4-(4-((6-isopropoxypyridin-3-yl)amino)-5,6-dihydropyrido[3,4-d]pyrimidin-7(8H)-yl)-2-(trifluoromethyl)benzonitrile] | 2.8% | 600 nM | 110 nM | reduced (When the AR expression reducing activity is 50% or more, it is described as “reduced”)
Cn1nccc1CCOc1ccc(Nc2ncnc3c2CCN(c2ccc(C#N)c(C(F)(F)F)c2)C3)cc1 [Example 14, 4-(4-((4-(2-(1-Methyl-1H-pyrazol-5-yl)ethoxy)phenyl)amino)-5,6-dihydropyrido[3,4-d]pyrimidin-7(8H)-yl)-2-(trifluoromethyl)benzonitrile] | – | 1400 nM | 300 nM | reduced (When the AR expression reducing activity is 50% or more, it is described as “reduced”)
CC(C)(COc1ccc(Nc2ncnc3c2CCN(c2ccc(C#N)c(C(F)(F)F)c2)C3)cn1)n1cnnn1 [Example 16, 4-(4-((6-(2-methyl-2-(1H-tetrazol-1-yl)propoxy)pyridin-3-yl)amino)-5,6-dihydropyrido[3,4-d]pyrimidin-7(8H)-yl)-2-(trifluoromethyl)benzonitrile] | −1.5% | 700 nM | 210 nM | reduced (When the AR expression reducing activity is 50% or more, it is described as “reduced”)
CC(C)(COc1ccc(Nc2ncnc3c2CCN(c2ccc(C#N)c(C(F)(F)F)c2)C3)nc1)n1cnnn1 [Example 17, 4-(4-((5-(2-methyl-2-(1H-tetrazol-1-yl)propoxy)pyridin-2-yl)amino)-5,6-dihydropyrido[3,4-d]pyrimidin-7(8H)-yl)-2-(trifluoromethyl)benzonitrile] | 0.6% | 700 nM | 170 nM | reduced (When the AR expression reducing activity is 50% or more, it is described as “reduced”)
CS(=O)(=O)N1CCN(CCCOc2ccc(Nc3ncnc4c3CCN(c3ccc(C#N)c(C(F)(F)F)c3)C4)cc2)CC1 [Example 18, 4-(4-((4-(3-(4-(methylsulfonyl)piperazin-1-yl)propoxy)phenyl)amino)-5,6-dihydropyrido[3,4-d]pyrimidin-7(8H)-yl)-2-(trifluoromethyl)benzonitrile] | −4.6% | 1900 nM | 360 nM | reduced (When the AR expression reducing activity is 50% or more, it is described as “reduced”)
N#Cc1ccc(N2CCc3c(ncnc3Nc3ncc(S(=O)(=O)N4CCCOCC4)s3)C2)cc1C(F)(F)F [Example 20, 4-(4-((5-((1,4-oxazepan-4-yl)sulfonyl)thiazol-2-yl)amino)-5,6-dihydropyrido[3,4-d]pyrimidin-7 (8H)-yl)-2-(trifluoromethyl)benzonitrile] | 0.0% | 2500 nM | 100 nM | reduced (When the AR expression reducing activity is 50% or more, it is described as “reduced”)
N#Cc1ccc(N2CCc3c(ncnc3Nc3ccc(C(=O)NCC(F)(F)F)nn3)C2)cc1C(F)(F)F [Example 24, 6-((7-(4-Cyano-3-(trifluoromethyl)phenyl)-5,6,7,8-tetrahydropyrido[3,4-d]pyrimidin-4-yl)amino)-N-(2,2,2-trifluoroethyl)pyridazine-3-carboxamide] | – | 3500 nM | 70 nM | reduced (When the AR expression reducing activity is 50% or more, it is described as “reduced”)
N#Cc1ccc(N2CCc3c(ncnc3Nc3ccc(C(=O)NCC(F)F)nn3)C2)cc1C(F)(F)F [Example 28, 6-((7-(4-Cyano-3-(trifluoromethyl)phenyl)-5,6,7,8-tetrahydropyrido[3,4-d]pyrimidin-4-yl)amino)-N-(2,2-difluoroethyl)pyridazine-3-carboxamide] | – | 3200 nM | 20 nM | reduced (When the AR expression reducing activity is 50% or more, it is described as “reduced”)
N#Cc1ccc(N2CCc3c(ncnc3Nc3ccc(C(=O)NCC4(O)CC4)nn3)C2)cc1C(F)(F)F [Example 30, 6-((7-(4-Cyano-3-(trifluoromethyl)phenyl)-5,6,7,8-tetrahydropyrido[3,4-d]pyrimidin-4-yl)amino)-N-((1-hydroxycyclopropyl)methyl)pyridazine-3-carboxamide] | – | 3200 nM | – | reduced (When the AR expression reducing activity is 50% or more, it is described as “reduced”)
CC(C)(O)C1CCN(C(=O)c2coc(Nc3ncnc4c3CCN(c3ccc(C#N)c(C(F)(F)F)c3)C4)n2)CC1 [Example 41, 4-(4-((4-(4-(2-Hydroxypropan-2-yl)piperidin-1-carbonyl)oxazol-2-yl)amino)-5,6-dihydropyrido[3,4-d]pyrimidin-7(8H)-yl)-2-(trifluoromethyl)benzonitrile] | – | 2400 nM | 1940 nM | reduced (When the AR expression reducing activity is 50% or more, it is described as “reduced”)
